4 compounds from PubChem BioAssay AID1745844 (Carcinogenic Potency Database (CPDB), 2022) can be followed below.

One may read the TD50 as the 50% point of the dose-response relation for the toxic effect studied.

In this data set the test system is rodent lifetime carcinogenesis bioassay, tumor incidence TD50. The experiment in a line: chronic cancer bioassays in animals – CPDB, compiled studies (AID 1745844).

Calls of active or inactive are those of the source. No rule for the calls is given here. Numbered stars: 1 amine (or outer) side, 2 acyl side, 3 side chain; on linkers, the order of the positions; unused ones are H or OH. Bridge positions count the residues as written; N and C are the ends. Square brackets hold non-standard residues; d marks the D form. Peptide text beside a SMILES is read from it. I, II: the chains in the order shown. Actinocin(9to1) = Cc1c2oc3c(C)ccc(C(=O)[*:1])c3nc-2c(C(=O)[*:2])c(N)c1=O; NMeV = CN[C@H](C(=O)O)C(C)C; Sar = CNCC(=O)O

In the case of `O=S(=O)(O)O`, the TD50 is, setting by setting: (hamster, strain Syrian Golden, females, in drinking water, site: cecum, lesion: one or several types, types not named, dosed 108 weeks, study length 108 weeks) 115 mg/kg/day (inactive); (hamster, strain Syrian Golden, females, in drinking water, site: thyroid gland, lesion: adenoma, dosed 108 weeks, study length 108 weeks) 124 mg/kg/day (inactive); (hamster, strain Syrian Golden, males, in drinking water, site: cecum, lesion: one or several types, types not named, dosed 119 weeks, study length 119 weeks) 136 mg/kg/day (inactive); (hamster, strain Syrian Golden, males, in drinking water, site: liver, lesion: hepatocellular adenoma, dosed 91 weeks, study length 91 weeks) 87.5 mg/kg/day; (hamster, strain Syrian Golden, males, in drinking water, site: liver, lesion: hepatocellular adenoma, dosed 104 weeks, study length 104 weeks) 2590 mg/kg/day; (hamster, strain Syrian Golden, males, in drinking water, site: liver, lesion: hepatocellular carcinoma, dosed 91 weeks, study length 91 weeks) 464 mg/kg/day. In addition, the TD50 was 181 mg/kg/day (hamster, strain Syrian Golden, males, in drinking water, site: liver, lesion: hepatocellular carcinoma, dosed 104 weeks, study length 104 weeks); 2580 mg/kg/day (hamster, strain Syrian Golden, males, in drinking water, site: liver, lesion: histiocytoma, malignant, dosed 104 weeks, study length 104 weeks); 2590 mg/kg/day (hamster, strain Syrian Golden, males, in drinking water, site: liver, lesion: reticulum-cell sarcoma, dosed 104 weeks, study length 104 weeks); 87.5 mg/kg/day (hamster, strain Syrian Golden, males, in drinking water, site: liver, lesion: several types, types named in the paper, dosed 91 weeks, study length 91 weeks); 109 mg/kg/day (mouse, strain C3H (MTV+), females, in drinking water, site: lung, lesion: adenoma, dosed 92 weeks, study length 92 weeks); 6.27 mg/kg/day (mouse, strain CBA/Cb/Se, females, by gavage, site: liver, lesion: hepatoma, dosed 36 weeks, study length 74 weeks). Further, the TD50 is 3.35 mg/kg/day (mouse, strain CBA/Cb/Se, females, by gavage, site: lung, lesion: several types, types named in the paper, dosed 36 weeks, study length 74 weeks); 8.43 mg/kg/day (mouse, strain CBA/Cb/Se, males, by gavage, site: liver, lesion: hepatoma, dosed 36 weeks, study length 84 weeks); 5.1 mg/kg/day (mouse, strain CBA/Cb/Se, males, by gavage, site: lung, lesion: several types, types named in the paper, dosed 36 weeks, study length 84 weeks); 10.3 mg/kg/day (mouse, strain ICRC x C3H (Jax), females, by gavage, site: lung, lesion: adenocarcinoma, dosed 73 weeks, study length 73 weeks); 79.5 mg/kg/day (mouse, strain ICRC x C3H (Jax), males, by gavage, site: lung, lesion: adenocarcinoma, dosed 73 weeks, study length 73 weeks); 146 mg/kg/day (mouse, strain Swiss albino, females, in drinking water, site: lung, lesion: adenocarcinoma, dosed 95 weeks, study length 95 weeks). In addition, the TD50 is 26.7 mg/kg/day (mouse, strain Swiss albino, females, in drinking water, site: lung, lesion: adenoma, dosed 95 weeks, study length 95 weeks); 23.8 mg/kg/day (mouse, strain Swiss albino, females, in drinking water, site: lung, lesion: several types, types named in the paper, dosed 95 weeks, study length 95 weeks); 78.4 mg/kg/day (mouse, strain Swiss albino, males, in drinking water, site: liver, lesion: several types, types named in the paper, dosed 94 weeks, study length 94 weeks); 74.2 mg/kg/day (mouse, strain Swiss albino, males, in drinking water, site: lung, lesion: adenocarcinoma, dosed 94 weeks, study length 94 weeks); 23.1 mg/kg/day (mouse, strain Swiss albino, males, in drinking water, site: lung, lesion: adenoma, dosed 94 weeks, study length 94 weeks); 18.7 mg/kg/day (mouse, strain Swiss albino, males, in drinking water, site: lung, lesion: several types, types named in the paper, dosed 94 weeks, study length 94 weeks). In addition, the TD50 runs as follows: (mouse, strain Swiss, both sexes, by gavage, site: lung, lesion: adenocarcinoma, dosed 95 weeks, study length 95 weeks) 9.81 mg/kg/day; (mouse, strain Swiss, both sexes, by gavage, site: lung, lesion: one or several types, types not named, dosed 54 weeks, study length 54 weeks) 3.92 mg/kg/day; (rat, strain Cb/Sc, females, by gavage, site: lung, lesion: several types, types named in the paper, dosed 68 weeks, study length 94 weeks) 42.4 mg/kg/day; (rat, strain Cb/Sc, males, by gavage, site: liver, lesion: several types, types named in the paper, dosed 68 weeks, study length 94 weeks) 39.4 mg/kg/day; (rat, strain Cb/Sc, males, by gavage, site: lung, lesion: several types, types named in the paper, dosed 68 weeks, study length 94 weeks) 60.1 mg/kg/day. The carcinogen call (hamster, strain Syrian Golden, males, in drinking water, site: liver, lesion: hemangioma, dosed 119 weeks, study length 119 weeks) is “negative (inactive)”; the carcinogen call (mouse, strain AKR, females, in drinking water, site: liver, lesion: one or several types, types not named, dosed 69 weeks, study length 69 weeks) was “negative (inactive)”; the carcinogen call (mouse, strain AKR, females, in drinking water, site: lung, lesion: one or several types, types not named, dosed 69 weeks, study length 69 weeks) is “negative (inactive)”; the carcinogen call (mouse, strain AKR, males, in drinking water, site: liver, lesion: hemangioma, dosed 69 weeks, study length 69 weeks) was “negative (inactive)”; the carcinogen call (mouse, strain AKR, males, in drinking water, site: lung, lesion: adenoma, dosed 69 weeks, study length 69 weeks) was “negative (inactive)”; the carcinogen call (mouse, strain ICRC x C3H (Jax), females, by gavage, site: liver, lesion: one or several types, types not named, dosed 73 weeks, study length 73 weeks) is “negative (inactive)”. Besides, the carcinogen call reads like this: (mouse, strain ICRC x C3H (Jax), males, by gavage, site: liver, lesion: one or several types, types not named, dosed 73 weeks, study length 73 weeks) “negative (inactive)”; (mouse, strain Swiss albino, females, in drinking water, site: liver, lesion: hemangioma, dosed 95 weeks, study length 95 weeks) “negative (inactive)”.
`Cc1c2oc3c(C)ccc(C(=O)N[C@@H]4C(=O)N[C@H](C(C)C)C(=O)N5CCC[C@H]5C(=O)N(C)CC(=O)N(C)[C@@H](C(C)C)C(=O)O[C@@H]4C)c3nc-2c(C(=O)N[C@@H]2C(=O)N[C@H](C(C)C)C(=O)N3CCC[C@H]3C(=O)N(C)CC(=O)N(C)[C@@H](C(C)C)C(=O)O[C@@H]2C)c(N)c1=O` (I: T[dV]P[Sar][NMeV] / II: T[dV]P[Sar][NMeV]; ester I:1-I:C, II:1-II:C; linker I:N-II:N via Actinocin(9to1)): the TD50 reads like this: (rat, strain Charles River CD (Sprague-Dawley), females, i.p., site: any site (literature study), lesion: malignant tumor, dosed 26 weeks, study length 78 weeks) 0.00121 mg/kg/day; (rat, strain Charles River CD (Sprague-Dawley), females, i.p., site: any site (literature study), lesion: several types, types named in the paper, dosed 26 weeks, study length 78 weeks) 0.00145 mg/kg/day; (rat, strain Charles River CD (Sprague-Dawley), females, i.p., site: lung, lesion: adenoma, dosed 26 weeks, study length 78 weeks) 0.0501 mg/kg/day; (rat, strain Charles River CD (Sprague-Dawley), females, i.p., site: peritoneum, lesion: sarcoma, dosed 26 weeks, study length 78 weeks) 0.00199 mg/kg/day; (rat, strain Charles River CD (Sprague-Dawley), males, i.p., site: all sites, lesion: lymphosarcoma, dosed 26 weeks, study length 78 weeks) 0.0201 mg/kg/day; (rat, strain Charles River CD (Sprague-Dawley), males, i.p., site: all sites, lesion: plasmacytoma, dosed 26 weeks, study length 78 weeks) 0.0201 mg/kg/day. Besides, the TD50 (rat, strain Charles River CD (Sprague-Dawley), males, i.p., site: any site (literature study), lesion: malignant tumor, dosed 26 weeks, study length 78 weeks) worked out at 0.000708 mg/kg/day; the TD50 (rat, strain Charles River CD (Sprague-Dawley), males, i.p., site: any site (literature study), lesion: several types, types named in the paper, dosed 26 weeks, study length 78 weeks) came to 0.000501 mg/kg/day; the TD50 (rat, strain Charles River CD (Sprague-Dawley), males, i.p., site: liver, lesion: hemangioma, dosed 26 weeks, study length 78 weeks) was 0.0407 mg/kg/day; the TD50 (rat, strain Charles River CD (Sprague-Dawley), males, i.p., site: peritoneum, lesion: sarcoma, dosed 26 weeks, study length 78 weeks) is 0.000769 mg/kg/day.
Turning to `S=C(SN1CCOCC1)N1CCOCC1`, the TD50 is 338 mg/kg/day (rat, strain Sprague-Dawley, females, in feed, site: kidney, lesion: several types, types named in the paper, dosed 112 weeks, study length 112 weeks); 571 mg/kg/day (rat, strain Sprague-Dawley, females, in feed, site: kidney, lesion: squamous-cell carcinoma, dosed 112 weeks, study length 112 weeks); 571 mg/kg/day (rat, strain Sprague-Dawley, females, in feed, site: kidney, lesion: urothelial carcinoma, dosed 112 weeks, study length 112 weeks); 1740 mg/kg/day (rat, strain Sprague-Dawley, females, in feed, site: kidney, lesion: urothelial papilloma, dosed 112 weeks, study length 112 weeks); 206 mg/kg/day (rat, strain Sprague-Dawley, females, in feed, site: urinary bladder, lesion: several types, types named in the paper, dosed 112 weeks, study length 112 weeks); 1740 mg/kg/day (rat, strain Sprague-Dawley, females, in feed, site: urinary bladder, lesion: squamous-cell carcinoma, dosed 112 weeks, study length 112 weeks). Also, the TD50 by setting is: (rat, strain Sprague-Dawley, females, in feed, site: urinary bladder, lesion: squamous-cell papilloma, dosed 112 weeks, study length 112 weeks) 862 mg/kg/day; (rat, strain Sprague-Dawley, females, in feed, site: urinary bladder, lesion: urothelial carcinoma, dosed 112 weeks, study length 112 weeks) 862 mg/kg/day; (rat, strain Sprague-Dawley, females, in feed, site: urinary bladder, lesion: urothelial papilloma, dosed 112 weeks, study length 112 weeks) 571 mg/kg/day; (rat, strain Sprague-Dawley, females, in feed, site: urinary tract, lesion: several types, types named in the paper, dosed 112 weeks, study length 112 weeks) 96.9 mg/kg/day; (rat, strain Sprague-Dawley, males, in feed, site: kidney, lesion: several types, types named in the paper, dosed 112 weeks, study length 112 weeks) 528 mg/kg/day; (rat, strain Sprague-Dawley, males, in feed, site: kidney, lesion: squamous-cell carcinoma, dosed 112 weeks, study length 112 weeks) 1390 mg/kg/day. Further, the TD50 reads like this: (rat, strain Sprague-Dawley, males, in feed, site: kidney, lesion: urothelial carcinoma, dosed 112 weeks, study length 112 weeks) 690 mg/kg/day; (rat, strain Sprague-Dawley, males, in feed, site: urinary bladder, lesion: several types, types named in the paper, dosed 112 weeks, study length 112 weeks) 130 mg/kg/day; (rat, strain Sprague-Dawley, males, in feed, site: urinary bladder, lesion: squamous-cell carcinoma, dosed 112 weeks, study length 112 weeks) 690 mg/kg/day; (rat, strain Sprague-Dawley, males, in feed, site: urinary bladder, lesion: squamous-cell papilloma, dosed 112 weeks, study length 112 weeks) 1390 mg/kg/day; (rat, strain Sprague-Dawley, males, in feed, site: urinary bladder, lesion: urothelial carcinoma, dosed 112 weeks, study length 112 weeks) 340 mg/kg/day; (rat, strain Sprague-Dawley, males, in feed, site: urinary bladder, lesion: urothelial papilloma, dosed 112 weeks, study length 112 weeks) 457 mg/kg/day. Besides, the TD50 (rat, strain Sprague-Dawley, males, in feed, site: urinary tract, lesion: several types, types named in the paper, dosed 112 weeks, study length 112 weeks) is 85.5 mg/kg/day.
`O=NN(CCCC(F)(F)F)CCCC(F)(F)F`: the TD50 runs as follows: (rat, strain Sprague-Dawley, females, by gavage, site: any site (literature study), lesion: malignant tumor, dosed 32 weeks, study length 101 weeks) 0.291 mg/kg/day; (rat, strain Sprague-Dawley, females, by gavage, site: liver, lesion: hepatocellular carcinoma, dosed 32 weeks, study length 101 weeks) 0.707 mg/kg/day; (rat, strain Sprague-Dawley, females, by gavage, site: lung, lesion: several types, types named in the paper, dosed 32 weeks, study length 101 weeks) 1.12 mg/kg/day; (rat, strain Sprague-Dawley, males, by gavage, site: any site (literature study), lesion: malignant tumor, dosed 32 weeks, study length 101 weeks) 0.363 mg/kg/day; (rat, strain Sprague-Dawley, males, by gavage, site: liver, lesion: hepatocellular carcinoma, dosed 32 weeks, study length 101 weeks) 0.793 mg/kg/day; (rat, strain Sprague-Dawley, males, by gavage, site: lung, lesion: several types, types named in the paper, dosed 32 weeks, study length 101 weeks) 0.793 mg/kg/day.
